This note sets out measurements from US11091429B2, “Organic compounds” (Givaudan SA, priority 2012, dated 2021).

A short description of assay [1]: Test on Baileys cream liqueur. Conditions: 1 ppm, 17% alcohol. As for the experimental part:
Test on Baileys Cream Liqueur:
In Baileys cream liqueur (Market Product) containing 17% alcohol, carbohydrates 25% and 13% fat C18:2-gaba was added at 1 ppm.
Samples were evaluated by expert tasters. Tasters were asked to describe the samples focusing on authentic taste, alcohol impact, mouthfeel, fullness, salivation, sweetness, bitterness, richness, long lastingness and fattiness.
Base is Baileys cream liqueur
(§1) Samples were evaluated by expert tasters. Tasters were asked to describe the samples focusing on authentic taste, mouthfeel, fullness, salty-ness, salivation, umami, sweetness, juiciness, richness, long lastingness and fattiness.
Base: Baileys cream liqueur (containing 17% alcohol, carbohydrates 25% and 13% fat)

Assay [2] is described as follows: Tasting in UHT sweetened banana flavoured milk. Particulars: banana flavour 0.04%. As for the experimental part:
UHT Sweetened Banana Flavoured Milk, With Different Fat Levels
In a UHT milk with 0% and 3% fat sweetened with 4% sucrose by weight, flavoured with proprietary banana flavour dosed at 0.04%. C18:2 gaba was added at 0.25 ppm, 0.5 ppm and 1 ppm.
(§2) Samples were evaluated by expert tasters. Tasters were asked to describe the samples focusing on authentic taste, mouthfeel, fullness, salivation, sweetness, juiciness, richness, long lastingness and fattiness.

Assay [3] is described as follows: Tasting in mango still beverage, 4% clear mango juice. Conditions: 1 ppm; 4% clear mango juice (30% reduced juice). As to the method:
Mango Flavoured Still Beverage Containing Different Levels of Juice,
In a Mango flavoured still beverage, sweetened with 8% sucrose and containing 0.1% citric acid and 1%, 4% and 6% clear mango juice flavoured with a proprietary Mango flavour @ 0.05%, C18:2-gaba and C18:2-Pro were added, as such (separate) and in combination.
All samples were evaluated by expert tasters. Tasters were asked to describe the samples focusing on authentic taste, juicy mouthfeel, enhancement, richness, juiciness, long lastingness, salivation, sweetness.
In a Mango flavoured still beverage, sweetened with 8% sucrose & containing 0.1% citric acid and 4% clear mango juice flavoured with Mango flavour @ 0.05%, C18:2-gaba and C18:2-Pro were added, as such (separate) and in combination.
Base is water, 8% sucrose, 0.1% citric acid, 4% clear mango juice (30% reduced juice), flavoured with Mango flavor, dosed at 0.05%

Assay [4] can be described thus: Tasting in vanilla milk 0.15% fat. Particulars: 2 ppm, 4% sucrose, Vaniline 10 ppm + vanilla extract 0.03%. The gist of the method: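 Expert panel tasted samples in 0.15% fat milk sweetened with 4% sucrose and flavoured with vaniline at 10 ppm plus vanilla extract at 0.03%. Descriptors covered authentic taste, mouthfeel, fullness, saltiness, salivation, umami, sweetness, juiciness, richness, long-lastingness and fattiness.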

A further assay can be described thus: Test on Heineken beer. Conditions: 0.5 ppm, 4% alcohol. As to the method: In Heineken beer (Market Product) containing 4% alcohol C18:2-gaba was added at 0.5 ppm
Samples were evaluated by expert tasters. Tasters were asked to describe the samples focusing on authentic taste, alcohol impact, malt taste, hop taste, mouthfeel, fullness, salivation, sweetness, bitterness, richness, long lastingness and fattiness.
as §1
Base: Heineken beer (containing 4% alcohol)

The nature of assay [5]: Tasting in chocolate milk. As to the method: Chocolate Milk with Different Fat Content […]
as §2

The nature of a further assay: Test on menthol fondant. Particulars: 2 ppm; fondant 65%, sugar syrup 34%, menthol flavour 1%. As to the method: Samples were prepared and evaluated by expert tasters. Tasters were asked to describe the samples focusing on authentic taste, mouthfeel, fullness, salty-ness, salivation, umami, sweetness, juiciness, richness, long lastingness and fattiness.
Test on Menthol Fondant (1%1
Base is Fondant 65%, sugar syrup 34% and a proprietary menthol flavour at 1%

Assay [6] in a line: Tasting in beef bouillon base. Particulars: 0.5 PPM in beef bouillon base 1.0% salt, 0.5% fat. As to the method:
(§3) The following formulations were prepared and tasted by trained panelists.
Beef Bouillon base 1.0% salt, 0.5% fat

Another assay in a line: Tasting in pilaf. Conditions: cooked rice with 10% of the butter flavoured at 1 ppm. As for the experimental part:
as §3

A short description of another assay: Test on Tang. Conditions: 0.5 ppm, orange flavoured Tang. As to the method: In an orange flavoured Tang powdered soft drink (market product) sweetened with sucrose plus high intensity sweetener and containing citric acid, C18:2-gaba and C18:2-pro were tested.
All samples were evaluated by expert tasters. Tasters were asked to describe the samples focusing on authentic taste, mouthfeel & body, enhancement, richness, juiciness, long lastingness, salivation, sweetness, masking off notes of high intensity sweetener
Base is Orange Flavoured Tang

A short description of another assay: Tasting in fish sauce. As for the experimental part: as §3
Salt level pure product between 5-40%
Salt level in application 0.3-1.0%
Samples were prepared and evaluated by expert tasters. Tasters were asked to describe the samples focusing on authentic taste, mouthfeel, fullness, salivation, salty-ness, umami, sweetness, juiciness, richness, long lastingness and fattiness.

“Also recorded” adds a separate entry of the source.

As for `CCCCC/C=C\C/C=C\CCCCCCCC(=O)NCCCC(=O)O` [C18:2-gaba], the tasting result is “strongly enhanced alcohol effect, more cocoa, very creamy and long lasting aftertaste” in [1]; “fuller banana, more authentic, more sweet” in assay [2] (0.25 ppm, UHT milk 0% fat); “more authentic, less estery and more round” in assay [2] (0.25 ppm, UHT milk 3% fat); “fuller banana, authentic, creamy and sweet, more mouthfeel” in assay [2] (0.5 ppm, UHT milk 0% fat); “creamy banana” in assay [2] (0.5 ppm, UHT milk 3% fat); “creamy, creamy banana, sweet aftertaste, more mouthfeel and very longlasting” in assay [2] (1 ppm, UHT milk 0% fat). Further, the tasting result was “creamy long lasting and more authentic and more impact” in assay [2] (1 ppm, UHT milk 3% fat); “fatty skin-like, very juicy, authentic mango, long lasting mango taste, more mouthfeel than the full juice product” in assay [3]; “fatty, long lasting authentic vanilla, vanilla bean taste is enhanced” in assay [4]; “more hoppy, more bitter, more malt and stronger alcohol impact” in the assay “Test on Heineken beer”; “more happy, more bitter, more malt and stronger alcohol impact” in “Test on Heineken beer” (listed as C18:2 gaba); “stronger cocoa note, more chocolate vs cocoa” in assay [5] (0.5 ppm, chocolate milk 1.8% fat). The tasting result was “very creamy, enhanced cocoa note” in assay [5] (0.5 ppm, chocolate milk 3% fat); “very creamy, chocolate, long-lasting creamy and chocolate taste” in assay [5] (1 ppm, chocolate milk 1.8% fat); “very creamy, lasting, sweet, almost taste like chocolate ice cream” in assay [5] (1 ppm, chocolate milk 3% fat); “increased menthol impact, stronger cooling more sweet, long lasting, fresh” in “Test on menthol fondant”; “Strong, Salty, Umami, mouthfeel” in assay [6]; “more mouthfeel, with a lingering creamy authentic butter taste” in “Tasting in pilaf”. In addition, the tasting result in the assay “Test on Tang” was “enhances sweet juicy orange notes, enhanced mouthfeel; also recorded: the off-notes of the high intensity sweetener were suppressed”; in the assay “Tasting in fish sauce” (0.5 ppm in 1% diluted fish sauce (0.27% salt)), “stronger in umami, longer lasting and richer”; in the assay “Tasting in fish sauce” (0.5 ppm in pure fish sauce (27% salt)) it was “strong in body and mouthfeel, more salty, richer with more rounded fish notes”.
